Several values for one entry are separate records, joined by “and”; a condition that tells them apart may be missing. Identical values can stand only once.
Experiments:
[1] = tested on: L. donovani promastigotes; test: Antileishmanial activity against L. donovani promastigotes (MTT assay); assay type: cell-based; conditions: Leishmania donovani; promastigotes, 72 h, MTT; read-out: EC50 L. donovani Pro.
Procedure: The Leishmania species used in this study were L. donovani (MHOM/IN/00/DEVI) purchased from CNR Leishmania (Montpellier, France). Leishmania promastigote forms were grown in Schneider’s Drosophila medium (Life Technologies, Saint-Aubin, France) supplemented with 100 U/mL penicillin, 100 µg/mL streptomycin, 2 mM L-glutamine and 20% FCS (Life Technologies, Saint-Aubin, France) at 27 °C. The in vitro evaluation of the tested compound’s antileishmanial activity on promastigote forms was carried out by MTT assay according to the Mosmann protocol with some modifications. Briefly, promastigotes in log-phase were incubated at an average density of 10^6 parasites/mL in sterile 96-well plates with various concentrations of compound dissolved in DMSO (final concentration less than 0.5% v/v), in duplicate. Appropriate controls treated with DMSO, Miltefosine, Amphotericin B, Fexinidazole, and Fexinidazole sulfone (reference drugs purchased from Sigma-Aldrich, Saint-Louis, Missouri, USA) were added to each set of experiments. After a 72 h incubation period at 27 °C, parasitic metabolic activity was determined. Each plate-well was then microscope-analyzed to detect any precipitate formation. 20 µL of MTT (3-(4,5-dimethylthiazol-2-yl)-2,5-diphenyltetrazolium bromide) (Sigma-Aldrich, Saint-Louis, Missouri, USA) solution (5 mg/mL in PBS) were added to each well and incubated for 4 h at 27 °C. The enzyme reaction was then stopped by addition of 100 µL of 50% isopropanol–10% sodium dodecyl sulfate. Plates were shaken vigorously at 300 rpm for 10 min. The absorbance was measured at 570 nm in a BIO-TEK Elx808 (Biotek, Colmar, France) absorbance microplate reader. […] EC50 values were calculated by non-linear regression analysis processed dose-response curves, using TableCurve 2D V5.0 software (Systat Software Inc. (Palo Alto, CA, USA)). EC50 values represent the mean value calculated from at least three separate experiments.

[2] = tested on: L. infantum promastigotes; test: Antileishmanial activity against L. infantum promastigotes (luciferase assay); assay type: cell-based; conditions: Leishmania infantum, 72 h, read-out: EC50 L. infantum Pro.
Procedure: L. infantum promastigotes (MHOM/MA/67/ITMAP-263, CNR Leishmania, Montpellier, France, expressing luciferase activity) were used in the following tests. The effects of the tested compounds on the growth of L. infantum promastigotes were assessed by Luciferase Assay. Briefly, promastigotes in log-phase in RPMI 1640 medium supplemented with 10% fetal calf serum (FCS), 2 mM L-glutamine and antibiotics (100U/mL penicillin, 100 µg/mL streptomycin and 50µg/mL geneticin), were incubated at an average density of 10^6 parasites/mL (100 µL/well) in sterile 96-well plates with various concentrations of compounds dissolved in DMSO (final concentration less than 0.5% v/v), in duplicate. Appropriate controls (100 µL/well) treated by DMSO and reference drugs (purchased for the majority from Sigma Aldrich) were added to each set of experiments. After a 72 h incubation period at 24 °C, each plate-well was then microscope-examined for detecting possible precipitate formation. To estimate the luciferase activities of promastigotes, 80 µL of each well are transferred in white 96-well plates, Steady Glow reagent (Promega) was added according to manufacter’s instructions, and plates were incubated for 2 min. The luminescence was measured in a FLUOstar Omega (BMG Labtech, Champigny-sur-Marne, France). […] EC50 were calculated by non-linear regression analysis processed on dose–response curves, using TableCurve 2D V5 software.

[3] = tested on: L. infantum axenic amastigotes; test: Antileishmanial activity on L. infantum axenic amastigotes (luciferase assay); assay type: cell-based; conditions: Leishmania infantum, 48 h, read-out: EC50 L. infantum Axenic Ama.
Procedure: L. infantum promastigotes were harvested in logarithmic phase of growth by centrifugation at 900× g for 10 min. The supernatant was removed carefully and was replaced by the same volume of RPMI 1640 complete medium at pH 5.4 and incubated for 24 h at 24 °C. The acidified promastigotes were then incubated for 24 h at 37 °C in a ventilated flask to transform them into axenic amastigotes. The amastigote stage was checked both by electron microscopy (short flagellum with small bulbous tip extending beyond a spherical cell body) and RT-PCR to confirm the overexpression of ATG8 and amastin genes in amastigotes, relative to promastigotes. The effects of the tested compounds on the growth of L. infantum axenic amastigotes were assessed as follows. L. infantum amastigotes were incubated at a density of 2 × 10^6 parasites/mL in sterile 96-well plates with various concentrations of compounds dissolved in DMSO (final concentration less than 0.5% v/v), in duplicate. Appropriate controls treated with DMSO, amphotericin B, miltefosine, fexinidazole and fexinidazole sulfone were added to each set of experiments. After a 48 h incubation period at 37 °C, each plate-well was then microscopically examined to detect any precipitate formation.
• Luciferase activity and determination of EC50 were performed as above.

[4] = Cytotoxicity evaluation on HepG2 cell line (MTT); assay type: cell-based; conditions: human, HepG2 cells
Procedure: The tested molecules’ cytotoxicity was assessed according to the method of Mosmann with slight modifications. […] Triplicate assays were performed for each sample. Each plate-well was then microscope-examined to detect possible precipitate formation before the medium was aspirated from the wells. 100 µL of MTT (3-(4,5-dimethyl-2-thiazolyl)-2,5-diphenyl-2H-tetrazolium bromide) solution (0.5 mg/mL in medium without FCS) were then added to each well. […] Plates were shaken vigorously (700 rpm) for 10 min. The absorbance was measured at 570 nm with 630 nm as reference wavelength using a BIO-TEK ELx808 Absorbance Microplate Reader. DMSO was used as blank and doxorubicin (purchased from Sigma Aldrich) as positive control. Cell viability was calculated as percentage of control (cells incubated without compound). […] (Palo Alto, CA, USA)). CC50 values represent the mean value calculated from three separate experiments.

[5] = Cytotoxicity on THP-1 cell line (MTT); assay type: cell-based; conditions: human, THP-1 cells, THP1 cell line
Procedure: The plates were incubated for 72 h at 37 °C. Each well plate was then microscope-examined for detecting possible precipitate formation before the medium was aspirated from the wells. 100 µL of MTT solution (0.5 mg/mL in medium) were then added to each well. Cells were incubated for 2 h at 37 °C. […] Plates were shaken vigorously (300 rpm) for 10 min. The absorbance was measured at 570 nm using a BIO-TEK ELx808 Absorbance Microplate Reader. DMSO was used as blank and doxorubicin (purchased from Sigma Aldrich) as positive control. Cell viability was calculated as percentage of control (cells incubated with DMSO). […] (Palo Alto, CA, USA). CC50 values represent the mean value calculated from three separate experiments.

[6] = Redox potential of the nitro group by cyclic voltammetry; assay type: physicochemical; conditions: cyclic voltammetry in DMSO, corrected versus NHE
Procedure: Voltammetric measurements were carried out with a potentiostat Autolab PGSTAT100 (ECO Chemie, Utrecht, The Netherlands) controlled by GPES 4.09 software (ECO Chemie, Utrecht, The Netherlands). Experiments were performed at room temperature in a homemade airtight three–electrode cell connected to a vacuum/argon line. The reference electrode consisted of a saturated calomel electrode (SCE) separated from the solution by a bridge compartment. The counter electrode was a platinum wire of 1 cm^2 apparent surface. The working electrode was a GC microdisk (1.0 mm in diameter–Bio-logic SAS). The supporting electrolyte (nBu4N)[PF6] (Fluka, 99% puriss electrochemical grade) and the solvent DMSO (Sigma-Aldrich puriss p.a. dried <0.02% water) were used as received and simply degassed under argon. The solutions used during electrochemical analyses were typically 10^−3 M in compound and 0.1 M in supporting electrolyte. Before each measurement, the solutions were degassed by bubbling Ar, and the working electrode was polished with a polishing machine (Presi P230, Eybens, France). Under the experimental conditions adopted in this work, the half-wave potential (E1/2) of the ferrocene Fc+/Fc couple in DMSO was E1/2 = 0.45 V vs. SCE. Experimental peak potentials were measured versus SCE and converted to NHE by adding 0.241 V.

SMILES | EC50 [1] | EC50 [2] | EC50 [3] | CC50 at 72 h [4] | CC50 at 72 h [5] | E0 (redox potential of the nitro group) [6] | melting point
CC(C)S(=O)(=O)Cc1nc2c(Sc3ccc(Cl)cc3)cc(Cl)cn2c1[N+](=O)[O-] [Compound 3g, 6-Chloro-8-[(4-Chlorophenyl)thio]-2-[(isopropylsulfonyl)methyl]-3-Nitroimidazo[1,2-a]pyridine] | 2.2 ± 0.3 µM | 2.4 ± 0.6 µM | 3.2 ± 0.1 µM | 22.2 ± 5.5 µM | > 31.2 µM | −0.63 V | 208 °C
COc1cccc2c1C(=O)c1c(O)c3c(c(O)c1C2=O)C[C@@](O)(C(=O)CO)C[C@@H]3O[C@H]1C[C@H](N)[C@H](O)[C@H](C)O1 [Doxorubicin, reference compound] | – | – | – | 0.2 ± 0.02 µM | 0.8 ± 0.1 µM | – | –
O=[N+]([O-])c1c(CS(=O)(=O)c2ccc(F)cc2)nc2c(Br)cc(Cl)cn12 [Compound 2e, 8-Bromo-6-Chloro-2-[(4-Fluorophenylsulfonyl)methyl]-3-Nitroimidazo[1,2-a]pyridine] | 2.8 ± 0.5 µM | > 100 µM | 3.3 ± 0.1 µM | > 7.8 µM | 33.3 ± 1.4 µM | −0.64 V | 222 °C
O=[N+]([O-])c1c(CS(=O)(=O)CCC(F)(F)F)nc2c(Br)cc(Cl)cn12 [Compound 2j, 8-Bromo-6-Chloro-3-Nitro-2-[(3,3,3-Trifluoropropylsulfonyl)methyl]imidazo[1,2-a]pyridine] | 14.4 ± 1.6 µM | 1.9 ± 0.4 µM | 20.1 ± 5.6 µM | 42.9 ± 12.3 µM | 26 ± 1.2 µM | −0.60 V and −0.6 V | 181 °C
CC(C)S(=O)(=O)Cc1nc2c(Br)cc(Cl)cn2c1[N+](=O)[O-] [Compound 2h, 8-Bromo-6-Chloro-2-[(isopropylsulfonyl)methyl]-3-Nitroimidazo[1,2-a]pyridine] | > 25 µM | 61.2 ± 3.4 µM | > 50 µM | > 62.5 µM | > 100 µM | −0.65 V | 183 °C
O=[N+]([O-])c1c(CS(=O)(=O)C2CC2)nc2c(Br)cc(Cl)cn12 [Compound 2i, 8-Bromo-6-Chloro-2-[(cyclopropylsulfonyl]methyl)-3-Nitroimidazo[1,2-a]pyridine] | > 25 µM | > 50 µM | > 50 µM | > 6.2 µM | > 50 µM | −0.63 V | 250 °C
O=[N+]([O-])c1c(CS(=O)(=O)c2ccc(Cl)cc2)nc2c(Br)cc(Cl)cn12 [Compound 2d, 8-Bromo-6-Chloro-2-[(4-Chlorophenylsulfonyl)methyl]-3-Nitroimidazo[1,2-a]pyridine] | 3 ± 0.4 µM | 3.5 ± 0.4 µM | 2.1 ± 0.3 µM | > 12.5 µM | > 31.2 µM | −0.62 V | 222 °C
O=[N+]([O-])c1c(CS(=O)(=O)c2ccc(C(F)(F)F)cc2)nc2c(Cl)cc(Cl)cn12 [Compound 1d, 6,8-Dichloro-3-Nitro-2-[(4-Trifluoromethylphenylsulfonyl)methyl]imidazo[1,2-a]pyridine] | 4.1 ± 0.4 µM | > 100 µM | 2.2 ± 0.1 µM | > 15.6 µM | 23.2 ± 1.9 µM | −0.60 V and −0.6 V | 196 °C
O=[N+]([O-])c1c(CS(=O)(=O)c2ccc(F)cc2)nc2c(Cl)cc(Cl)cn12 [Compound 1c, 6,8-Dichloro-2-[(4-fluorophenylsulfonyl)methyl]-3-nitroimidazo[1,2-a]pyridine] | 5.8 ± 1.9 µM | > 100 µM | > 1.6 µM | > 7.8 µM | 22.5 ± 1.1 µM | −0.60 V and −0.6 V | 224 °C
O=[N+]([O-])c1c(C[S+]([O-])c2ccccc2)nc2c(Br)cc(Cl)cn12 (centres unmarked) [Compound 5, 8-Bromo-6-Chloro-3-Nitro-2-[(phenylsulfinyl)methyl]imidazo[1,2-a]pyridine] | – | – | – | – | – | – | 198 °C
